# Literature values in patent publication US20050220913A1, “Novel in-expensive and efficient process for isolation of imperatorin, a potent inducible nitric oxide synthase inhibitor and anti-inflammatory drug candidate from Aegle marmelos Correa” (Council of Scientific and Industrial Research, priority 2004, published 2005).
# Experiments:
# HL-60 cells = settings: Kawa et al. 2000
# [1] = test system: human promyelocytic leukaemia, HL-60 cells; settings: at micromolar concentrations; imperatorin from roots of Angelica dahurica; Hyun-Ock et al. 2002
# [2] = test system: inducible nitric oxide synthase (iNOS); settings: imperatorin isolated from Saposhnikovia divaricata; Yang et al. 1999
smiles,measurement,setting,value
CC(C)=CCOc1c2occc2cc2ccc(=O)oc12 [Imperatorin],activity of HL-60 cells by nitro blue tetrazolium (NBT) method,HL-60 cells,strong activity
same,induction of apoptosis of HL-60 cells,[1],able to trigger apoptosis of HL-60 cells
same,IC50 value for inhibition of nitrite production,[2],17.3 µg/mL
